Source: ChEMBL document CHEMBL3352159, “Protolichesterinic acid derivatives: α-methylene-γ-lactones as potent dual activators of PPARγ and Nrf2 transcriptional factors” (Bioorg Med Chem Lett, 2014)
Active and inactive are the calls of the source. No cut-off for these calls is given here.

Columns and labels:
[1] = Cytotoxicity against human A375M cells after 4 days by MTT assay; assay type: functional, cell-based; conditions: 96 h
[2] = Cytotoxicity against mouse peritoneal macrophages after 24 hrs; assay type: cell-based; conditions: Peritoneal macrophage cell
[3] = system: Peritoneal macrophage cell; test: Induction of Dectin-1 mRNA expression in mouse peritoneal macrophages isolated from PPARgamma -/- mouse treated at 1 uM for 5 hrs by qRT-PCR analysis; assay type: functional, cell-based
[4] = system: Peritoneal macrophage cell; test: Induction of Dectin-1 mRNA expression in mouse peritoneal macrophages isolated from PPARgamma -/- mouse treated at 5 uM for 5 hrs by qRT-PCR analysis; assay type: functional, cell-based
[5] = system: Peritoneal macrophage cell; test: Induction of CD36 mRNA expression in mouse peritoneal macrophages isolated from PPARgamma -/- mouse treated at 1 uM for 5 hrs by qRT-PCR analysis; assay type: functional, cell-based
[6] = system: Peritoneal macrophage cell; test: Induction of NQO-1 mRNA expression in mouse peritoneal macrophages isolated from PPARgamma -/- mouse treated at 1 uM for 5 hrs by qRT-PCR analysis; assay type: functional, cell-based
[7] = system: Peritoneal macrophage cell; test: Induction of HO-1 mRNA expression in mouse peritoneal macrophages isolated from PPARgamma -/- mouse treated at 1 uM for 5 hrs by qRT-PCR analysis; assay type: functional, cell-based
[8] = target: T1, Peroxisome proliferator-activated receptor gamma (Mus musculus) (UniProt P37238); test: Activation of PPARgamma in mouse peritoneal macrophages assessed as increase in Dectin-1 mRNA expression treated for 5 hrs by qRT-PCR analysis
T1 sequence (whole entry): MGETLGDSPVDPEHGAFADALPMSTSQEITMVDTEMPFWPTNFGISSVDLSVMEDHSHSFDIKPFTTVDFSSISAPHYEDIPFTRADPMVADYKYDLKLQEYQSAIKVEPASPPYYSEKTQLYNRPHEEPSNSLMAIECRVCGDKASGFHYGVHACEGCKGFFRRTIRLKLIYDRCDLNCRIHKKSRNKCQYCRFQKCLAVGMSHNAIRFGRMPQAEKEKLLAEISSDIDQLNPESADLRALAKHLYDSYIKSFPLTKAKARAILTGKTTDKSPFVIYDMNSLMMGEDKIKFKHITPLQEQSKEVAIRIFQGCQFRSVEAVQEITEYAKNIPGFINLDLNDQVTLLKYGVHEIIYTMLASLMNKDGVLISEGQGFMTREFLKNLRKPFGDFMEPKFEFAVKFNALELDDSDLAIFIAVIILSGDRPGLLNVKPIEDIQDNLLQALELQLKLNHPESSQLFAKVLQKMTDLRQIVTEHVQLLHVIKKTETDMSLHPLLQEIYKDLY

[9] = target: T1, Peroxisome proliferator-activated receptor gamma (Mus musculus); test: Activation of PPARgamma in mouse peritoneal macrophages assessed as increase in CD36 mRNA expression treated for 5 hrs by qRT-PCR analysis
[10] = target: Nuclear factor erythroid 2-related factor 2 (Mus musculus) (UniProt Q60795); test: Activation of Nrf2 in mouse peritoneal macrophages assessed as increase in HO-1 mRNA expression treated for 5 hrs by qRT-PCR analysis
[11] = target: Nuclear factor erythroid 2-related factor 2 (Mus musculus) (UniProt Q60795); test: Activation of Nrf2 in mouse peritoneal macrophages assessed as increase in NQO-1 mRNA expression treated for 5 hrs by qRT-PCR analysis

Chain of Nuclear factor erythroid 2-related factor 2 (Mus musculus) (Q60795 whole entry, looked up): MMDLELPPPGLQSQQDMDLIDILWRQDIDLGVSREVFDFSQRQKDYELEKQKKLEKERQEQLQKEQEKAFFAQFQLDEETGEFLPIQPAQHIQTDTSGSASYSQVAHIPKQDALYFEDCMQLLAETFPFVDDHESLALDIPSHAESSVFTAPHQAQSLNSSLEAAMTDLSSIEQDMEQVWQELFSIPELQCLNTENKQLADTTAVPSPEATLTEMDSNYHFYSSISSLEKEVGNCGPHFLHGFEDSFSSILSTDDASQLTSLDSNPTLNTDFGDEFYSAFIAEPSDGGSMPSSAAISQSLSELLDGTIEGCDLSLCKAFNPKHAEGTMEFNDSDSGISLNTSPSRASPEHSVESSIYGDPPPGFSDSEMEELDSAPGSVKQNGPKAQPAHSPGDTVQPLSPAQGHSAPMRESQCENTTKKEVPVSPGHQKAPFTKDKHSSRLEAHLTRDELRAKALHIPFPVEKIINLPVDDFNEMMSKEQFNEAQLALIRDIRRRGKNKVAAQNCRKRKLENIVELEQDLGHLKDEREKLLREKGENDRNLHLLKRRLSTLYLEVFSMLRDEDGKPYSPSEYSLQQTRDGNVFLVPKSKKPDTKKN

C=C1CC(CCCCCCCCCCCCC)OC1=O (stereo unspecified)
IC50 [1]: 3.9 µM

C=C1C(=O)O[C@@H](CCCCCCCCCCCCC)[C@@H]1C(=O)O [PROTOLICHESTERINIC ACID]
IC50 [1]: 8.6 µM

C=C1C(=O)OC(c2ccccc2)C1c1ccccc1 (mixture of isomers)
IC50 [1]: 6.3 µM

C=C1CC(CCc2ccccc2)OC1=O (stereo unspecified)
IC50 [1]: 8.7 µM

C=C1C(=O)OC(CCCCCCCCCCCCC)C1CC (mixture of isomers)
IC50 [1]: 4.1 µM

C=C1C(=O)OC(CCCCCCCCCCCCC)C1CCc1ccccc1 (mixture of isomers)
IC50 [1]: 3.3 µM

C=C1CC(CCCC)OC1=O (stereo unspecified)
IC50 [1]: 17.3 µM | IC50 [2]: 31.2 µM | Activity [3]: inactive | Activity [4]: inactive | Activity [5]: inactive | Activity [6]: inactive | Activity [7]: inactive | Activity [8]: Active | Activity [9]: Active | Activity [10]: Active | Activity [11]: Active

C=C1C(=O)OC(CCc2ccccc2)C1CCc1ccccc1 (stereo unspecified)
IC50 [1]: 2.7 µM

CCCCCCCCCCCCCC1C=C(C)C(=O)O1 (racemic)
IC50 [1]: > 100 µM | IC50 [2]: > 100 µM | Activity [3]: inactive | Activity [4]: inactive | Activity [8]: Active

CN(CCOc1ccc(CC2SC(=O)NC2=O)cc1)c1ccccn1 (stereo unspecified)
Activity [3]: inactive | Activity [4]: inactive | Activity [8]: Active

C=C1C(=O)OC(c2ccccc2)C1CCCC (mixture of isomers)
IC50 [1]: 7.8 µM | IC50 [2]: 12.7 µM | Activity [3]: inactive | Activity [4]: inactive | Activity [5]: inactive | Activity [6]: inactive | Activity [7]: inactive | Activity [8]: Active | Activity [9]: Active | Activity [10]: Active | Activity [11]: Active

C=C1C(=O)OC(CCc2ccccc2)C1CCCC (mixture of isomers)
IC50 [1]: 5 µM

C=C1C(=O)OC(CCCC)C1CCc1ccccc1 (stereo unspecified)
IC50 [1]: 5.5 µM

C=C1C(=O)OC(c2ccccc2)C1CCc1ccccc1 (mixture of isomers)
IC50 [1]: 2.8 µM

C=C1CC(c2ccccc2)OC1=O (stereo unspecified)
IC50 [1]: 6.7 µM

CCCCCCCCCCCCC[C@H]1OC(=O)C(C)=C1C(=O)O
IC50 [1]: 72 µM | IC50 [2]: > 100 µM | Activity [3]: inactive | Activity [4]: inactive | Activity [8]: Active
